Results on one substance are retold here after patent US20030165853A1, “Antisense imaging of gene expression of the brain in vivo” (The Regents of the University of California Office of …, priority 2000, published 2003).

The conditions of series [1]: mouse, in vivo, iv. Here is the method:
(§1) Adult male BALB/c mice were divided into 5 groups of 3 mice each for the pharmacokinetic study. The mice were anesthetized with an intraperitoneal injection of ketamine (100 mg/kg) and xylazine (2 mg/kg). The injection solution contained 5 μCi of [^125I]-HD-PNA with or without conjugation to 2 μg of 8D3-SA in 0.01 M PBS/pH 7.4, and a total volume of 50 μl was administered via the jugular vein of each mouse. Groups of 3 mice each were sacrificed at 0.25, 2, 5, 15, and 60 min after the isotope injection and arterial blood was sampled from the aorta. After spinning the blood samples, the collected supernatant (serum) was counted for [^125I]-radioactivity using a γ-counter (Beckman Instruments, Inc., Fullerton, Calif.). An aliquot of serum was precipitated with cold 10% TCA, and the fraction of total serum radioactivity that was TCA precipitated was determined. The brain and peripheral organs (liver, kidney, heart, lung, and spleen) were removed from each mouse at 60 min after the isotope administration and total [^125I]-radioactivity in the organ was measured.
Pharmacokinetic parameters were determined by fitting the serum TCA-precipitable radioactivity data to a biexponential equation with a weighting factor of [1/A(t)]^2 using a derivative-free nonlinear regression analysis (PARBMDP, Biomedical Computer P-Series, developed at UCLA Health Science Computing Facilities).
where A(t)=% injected dose (ID)/ml serum at a given time (t).

For series [2] the following is noted: mouse, in vivo. The method, then:
as §1
The organ permeability-surface area (PS) product of either the unconjugated [^125I]-HD-PNA, or the [^125I]-HD-PNA conjugated to 8D3/SA, was calculated as follows: [formula] […]
The brain delivery of the compound was expressed as percentage of injected dose (ID)/g brain, and was calculated as follows: […]

A further series relates to human HD exon 1. As to the kind of experiment: Translation arrest (combined in vitro transcription/translation of HD exon 1). The series is classed as biochemical. Conditions: 5-50 μM antisense agent, [3H]-leucine incorporation. The method, then:
The hybridization of the antisense HD-PNA to the HD transcript was determined using a combination of transcription and translation that mimics in vivo conditions as previously described (Boado et al. (2000) J. Pharmacol. Exp. Ther., 295: 239-243). The cDNA containing the human HD exon 1 was sublconed into the Bluescript KS+plasmid, between either T3 or T7 RNA polymerase promoters, and this plasmid is designated clone 839, as described previously (Id). Transcription/translation of human HD exon 1 clone 839 was performed with 0.2 μg clone 839 plasmid DNA in the presence of T3 RNA polymerase, 5 μCi [^3H]-leucine, and 50% v/v rabbit reticulocyte lysate using the T3-TNT translation system (Promega, Madison, Wis.), as described previously (Id). Dose response studies with newly synthesized PNAs were performed and compared with a positive control antisense phosphodiester-ODN, designated ODN-III, as described (Id). Samples were incubated for 30 min at 30 ° C., and incorporation of [^3H]-leucine into HD exon 1 protein was analyzed by trichloroacetic acid (TCA) precipitation, and data expressed as percent of control, which lacked any added PNA or ODN. The HD exon 1 insert is 10% of the total plasmid, or about […] per 12.5 μL reaction. Since the TNT produces 10-30 RNA copies per plasmid, the final concentration of the HD RNA in the TNT reaction is approximately 1 μM. […]

The next series concerns HD mRNA. As to the kind of experiment: HD RNase protection assay. The class given is binding, human. As to conditions: RNase T1/A digestion, PAGE autoradiography. The method, then: The sense RNA was synthesized with T3 RNA polymerase following linearization of the plasmid with EcoRI. The transcribed RNA was radiolabeled with [^32Pα]ATP to a specific activity of 0.22 μCi/pmol, as previously described (Boado and Pardridge (1994) Bioconj. Chem., 6: 406-410). For the RNAse protection assay, 0.6 pmol of biotinylated HD-PNA or biotinylated luciferase-PNA, with or without conjugation to 6.4 pmol of MAb-SA, was added to 10^5 CPM of [^32P]-labeled sense HD RNA (0.2 pmol) in 3 μl buffer (80 mM NaCl, 7 mM phosphate buffer, pH=7.5, 0.1% BSA), and annealed for 30 minutes at 42° C. Then 20 units RNAse Ti and 2.5 μg RNAse A were added to the samples in 17 μl of RNAse digestion buffer (0.3 M NaCl, 10 mM TRIS pH=7.5, 4 mM EDTA, 0.02% tRNA, 0.02% BSA) and incubated for 30 min at 37° C. RNA fragments were analyzed by 7 M urea/20% polyacrylamide gel electrophoresis following by autoradiography as described by Pardridge et al. (1995) Proc. Natl. Acad. Sci., USA, 92:5592-5596. Labeled RNA and PNAs were heat denatured for 2 minutes at 95° C. and then incubated on ice for 2 minutes immediately before the experiment or conjugation to MAb-SA.

In the case of “[^125I]-PNA: biotinylated 16-mer PNA complementary to nucleotides −1 to +15 of human HD exon 1, Tyr-Lys, amidated carboxyl terminus; radioiodinated (CTTCCATTTTACCAAC; all peptide nucleic acid (PNA); biotinylated, Tyr-Lys added, amidated C-terminus, radioiodinated, positions not given here)”, in series [1], the A1 stood at 32 ± 2 % ID/ml, the A2 stood at 6.3 ± 0.7 % ID/ml, the “AUC (60 min)” value is given as 308 ± 36 % ID · min/ml and the “AUC (∞)” value came to 399 ± 49 % ID · min/ml. Besides, in series [1], the K1 was found to be 0.37 ± 0.04 min⁻¹, the K2 was 0.0206 ± 0.0014 min⁻¹, the VSS came out at 0.374 ± 0.042 L/kg and the “t½^1” value was determined as 1.9 ± 0.2 min. Moreover, the “t½^2” value in series [1] turned out to be 34 ± 3 min. Moreover, in series [2], the “BBB PS product” value was < 0.3 µL/min/g. Besides, in the series with human HD exon 1, the “inhibition of cell free translation of HD exon 1 protein” value is on record as “inhibits the cell free translation”. For the same substance, the “hybridization to HD mRNA (RNase protected fragment)” value with HD mRNA is reported as “specifically hybridizes to the target mRNA”.
